Like-named read-outs stand apart in the source and are kept apart here.
Biological target: CFTR-mediated chloride transport in human intestinal epithelial enteroid cells (Homo sapiens, UniProt P13569)
Test: Membrane potential dye, Enteroid Assay A
Assay type: cell-based
Conditions: for EC50: read-out: Ent. A EC50
Method: Base medium (ADF+++) consisted of Advanced DMEM/Ham's F12, 2 mM Glutamax, 10 mM HEPES, […] penicillin/streptomycin.
Bath 1 Buffer consisted of 1 mM MgCl2, 160 mM NaCl, 4.5 mM KCl, 10 mM HEPES, 10 mM Glucose, 2 mM CaCl2.
Chloride Free Buffer consisted of 1 mM Magnesium Gluconate, 2 mM Calcium Gluconate, 4.5 mM Potassium Gluconate, 160 mM Sodium Gluconate, 10 mM HEPES, 10 mM Glucose.
Bath1 Dye Solution consisted of Bath 1 Buffer, 0.04% Pluronic F127, 20 μM Methyl Oxonol, 30 μM CaCCinh-A01, 30 μM Chicago Sky Blue.
Chloride Free Dye Solution consisted of Chloride Free Buffer, 0.04% Pluronic F127, 20 μM Methyl Oxonol, 30 μM CaCCinh-A01, 30 μM Chicago Sky Blue.
3. Enteroid Cell Harvesting and Seeding
Cells were recovered in cell recovery solution, collected by centrifugation at 650 rpm for 5 min at 4° C., resuspended in TryPLE and incubated for 5 min at 37° C. Cells were then collected by centrifugation at 650 rpm for 5 min at 4° C. and resuspended in IEMM containing 10 μM ROCK inhibitor (RI).
4. Membrane Potential Dye, Enteroid Assay A
Briefly, cells were washed 5 times in Bath 1 Buffer. Bath 1 Dye Solution was added, and the cells were incubated for 25 min at room temperature. Following dye incubation, cells were washed 3 times in Chloride Free Dye Solution. Chloride transport was initiated by addition of Chloride Free Dye Stimulation Solution and the fluorescence signal was read for 15 min. […] Chloride transport was then expressed as a percentage of the chloride transport following treatment with 3 μM N-[(6-amino-2-pyridyl)sulfonyl]-6-(3-fluoro-5-isobutoxy-phenyl)-2-[(4S)-2,2,4-trimethylpyrrolidin-1-yl]pyridine-3-carboxamide, 3 μM (R)-1-(2,2-difluorobenzo[d][1,3]dioxol-5-yl)-N-(1-(2,3-dihydroxypropyl)-6-fluoro-2-(1-hydroxy-2-methylpropan-2-yl)-1H-indol-5-yl)cyclopropanecarboxamide and 300 nM acute N-[2,4-bis(1,1-dimethylethyl)-5-hydroxyphenyl]-1,4-dihydro-4-oxoquinoline-3-carboxamide triple combination control (% Activity).

[1] = enteroid cells incubated with test compound 18-24 hours, acute 10 μM forskolin and 300 nM N-[2,4-bis(1,1-dimethylethyl)-5-hydroxyphenyl]-1,4-dihydro-4-oxoquinoline-3-carboxamide
[2] = percentage of chloride transport of triple combination control (3 μM N-[(6-amino-2-pyridyl)sulfonyl]-6-(3-fluoro-5-isobutoxy-phenyl)-2-[(4S)-2,2,4-trimethylpyrrolidin-1-yl]pyridine-3-carboxamide based)

Sequence of CFTR-mediated chloride transport in human intestinal epithelial enteroid cells (P13569 with tags, fused parts or gaps DEL508-508): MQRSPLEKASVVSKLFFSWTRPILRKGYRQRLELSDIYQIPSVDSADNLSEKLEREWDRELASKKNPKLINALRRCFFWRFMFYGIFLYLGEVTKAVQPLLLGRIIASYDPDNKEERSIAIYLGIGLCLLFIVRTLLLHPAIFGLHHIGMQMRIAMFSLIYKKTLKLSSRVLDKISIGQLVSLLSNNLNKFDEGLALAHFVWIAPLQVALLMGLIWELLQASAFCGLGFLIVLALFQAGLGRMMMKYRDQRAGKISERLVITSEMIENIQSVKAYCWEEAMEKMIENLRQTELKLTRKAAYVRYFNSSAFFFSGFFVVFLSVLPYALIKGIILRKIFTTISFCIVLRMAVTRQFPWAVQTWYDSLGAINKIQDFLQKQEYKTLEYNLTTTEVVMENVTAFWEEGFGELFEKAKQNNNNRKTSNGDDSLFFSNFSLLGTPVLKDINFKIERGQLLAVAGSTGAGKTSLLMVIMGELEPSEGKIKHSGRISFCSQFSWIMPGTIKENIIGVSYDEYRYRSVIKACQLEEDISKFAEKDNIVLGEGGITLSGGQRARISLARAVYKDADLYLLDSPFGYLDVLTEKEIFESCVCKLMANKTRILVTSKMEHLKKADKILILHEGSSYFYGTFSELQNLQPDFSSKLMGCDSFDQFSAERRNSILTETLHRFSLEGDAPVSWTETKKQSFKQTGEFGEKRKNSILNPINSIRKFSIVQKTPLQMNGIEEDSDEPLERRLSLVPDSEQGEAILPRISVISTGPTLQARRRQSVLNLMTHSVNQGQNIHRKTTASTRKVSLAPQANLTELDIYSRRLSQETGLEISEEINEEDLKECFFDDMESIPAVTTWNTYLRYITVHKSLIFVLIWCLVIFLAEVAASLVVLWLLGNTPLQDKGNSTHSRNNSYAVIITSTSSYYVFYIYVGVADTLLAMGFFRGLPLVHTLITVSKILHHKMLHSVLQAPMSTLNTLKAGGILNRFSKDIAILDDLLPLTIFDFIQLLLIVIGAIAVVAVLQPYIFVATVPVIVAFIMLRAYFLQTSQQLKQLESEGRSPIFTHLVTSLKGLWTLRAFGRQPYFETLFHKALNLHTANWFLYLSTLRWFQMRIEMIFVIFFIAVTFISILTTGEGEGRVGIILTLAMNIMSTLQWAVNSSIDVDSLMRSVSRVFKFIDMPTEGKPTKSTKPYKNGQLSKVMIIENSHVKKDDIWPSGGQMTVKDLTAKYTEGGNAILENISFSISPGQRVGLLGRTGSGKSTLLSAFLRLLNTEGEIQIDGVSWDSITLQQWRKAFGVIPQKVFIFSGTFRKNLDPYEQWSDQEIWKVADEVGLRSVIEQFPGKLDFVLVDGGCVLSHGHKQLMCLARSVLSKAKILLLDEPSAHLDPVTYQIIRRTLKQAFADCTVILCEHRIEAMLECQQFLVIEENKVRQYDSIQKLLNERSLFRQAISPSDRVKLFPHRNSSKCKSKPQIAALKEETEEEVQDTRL

| Structure (SMILES) | Ent. A Max Activity (%) (Enteroid Assay A) | EC50 (Enteroid Assay A) [nM] | EC50 [1] [nM] | Ent. A Max Activity (%) [2] |
| --- | --- | --- | --- | --- |
| Cc1cccc(C)c1-c1cc2nc(n1)NS(=O)(=O)c1cccc(c1)C(=O)N1CC(O2)C2CCCN(C)C2C1 (single isomer, unassigned) [Compound 202, 12-(2,6-Dimethylphenyl)-21-methyl-15-oxa-8λ^6-thia-1,9,11,21,25-pentaazapentacyclo[14.7.1.13,7.110,14.017,22]hexacosa-3,5,7(26),10(25),11,13-hexaene-2,8,8-trione] | + (+ is <30%) | – | – | – |
| Cc1cccc(C)c1-c1cc2nc(n1)NS(=O)(=O)c1cccc(c1)C(=O)N1CC3C(CCCN3C)[C@@H](C1)O2 (single isomer, unassigned) [Compound 203, 12-(2,6-dimethylphenyl)-21-methyl-15-oxa-8λ^6-thia-1,9,11,21,25-pentaazapentacyclo[14.7.1.13,7.110,14.017,22]hexacosa-3,5,7(26),10(25),11,13-hexaene-2,8,8-trione] | ++ (++ is 30-60%) | 3000 to 30000 | – | – |
| Cc1cccc(C)c1-c1cc2nc(n1)NS(=O)(=O)c1cccc(c1)C(=O)N1CC3C(CCCN3C)[C@H](C1)O2 (single isomer, unassigned) [Compound 204, 12-(2,6-dimethylphenyl)-21-methyl-15-oxa-8λ^6-thia-1,9,11,21,25-pentaazapentacyclo[14.7.1.13,7.110,14.017,22]hexacosa-3,5,7(26),10(25),11,13-hexaene-2,8,8-trione] | – | 1000 to 3000 | – | – |
| Cc1cccc(C)c1-c1cc2nc(n1)NS(=O)(=O)c1cccc(c1)C(=O)N1Cc3ccccc3C[C@H](C1)O2 (single isomer, unassigned) [Compound 216, 12-(2,6-dimethylphenyl)-15-oxa-8λ^6-thia-1,9,11,26-tetraazapentacyclo[14.8.1.13,7.110,14.018,23]heptacosa-3(27),4,6,10,12,14(26),18,20,22-nonaene-2,8,8-trione] | – | – | 1000 to 3000 | +++ (+++ is >60%) |
| Cc1cccc(C)c1-c1cc2nc(n1)NS(=O)(=O)c1cccc(c1)C(=O)N1CCc3ccccc3C(C1)O2 (single isomer, unassigned) [Compound 221, 12-(2,6-dimethylphenyl)-15-oxa-8λ^6-thia-1,9,11,26-tetraazapentacyclo[14.8.1.13,7.110,14.017,22]heptacosa-3(27),4,6,10(26),11,13,17,19,21-nonaene-2,8,8-trione] | – | < 1000 | – | – |
| Cc1cccc(C)c1-c1cc2nc(n1)NS(=O)(=O)c1cccc(c1)C(=O)N1CC(CC(c3ccccc3)C1)O2 (single isomer, unassigned) [Compound 223, 18-(2,6-dimethylphenyl)-5-phenyl-2-oxa-14λ^6-thia-7,15,17,20-tetraazatetracyclo[14.3.1.13,7.19,13]docosa-1(19),9(21),10,12,16(20),17-hexaene-8,14,14-trione] | – | – | < 1000 | ++ (++ is 30-60%) |
| Cc1cccc(C)c1-c1cc2nc(n1)NS(=O)(=O)c1cccc(c1)C(=O)N1CC(CC(c3ccccc3)C1)O2 (single isomer, unassigned) [Compound 224, 18-(2,6-dimethylphenyl)-5-phenyl-2-oxa-14λ^6-thia-7,15,17,20-tetraazatetracyclo[14.3.1.13,7.19,13]docosa-1(19),9(21),10,12,16(20),17-hexaene-8,14,14-trione] | – | – | < 1000 | ++ (++ is 30-60%) |
| Cc1cccc(C)c1-c1cc2nc(n1)NS(=O)(=O)c1cccc(c1)C(=O)N1C[C@@H](CN(CC(F)(F)F)CC1CC(C)C)O2 (stereo in doubt) [Compound 105, (16R,20R)-12-(2,6-Dimethylphenyl)-20-(2-methylpropyl)-18-(2,2,2-trifluoroethyl)-15-oxa-8λ^6-thia-1,9,11,18,22-pentaazatetracyclo[14.4.1.13,7.110,14]tricosa-3(23),4,6,10,12,14(22)-hexaene-2,8,8-trione] | + (+ is <30%) | – | – | – |
| Cc1cccc(C)c1-c1cc2nc(n1)NS(=O)(=O)c1cccc(c1)CN1C[C@@H](CN(Cc3ccccc3)CC1=O)O2 (stereo in doubt) [Compound 144] | ++ (++ is 30-60%) | < 1000 | – | – |

Further lines, with some results ahead:

| Ent. A Max Activity (%) (Enteroid Assay A) | EC50 (Enteroid Assay A) [nM] | EC50 [1] [nM] | Structure (SMILES) | Ent. A Max Activity (%) [2] |
| --- | --- | --- | --- | --- |
| – | – | < 1000 | Cc1cccc(C)c1-c1cc2nc(n1)NS(=O)(=O)c1cccc(c1)C(=O)N1CC(CCC1c1ccccc1)O2 (single isomer, unassigned) [Compound 225, 18-(2,6-dimethylphenyl)-6-phenyl-2-oxa-14λ^6-thia-7,15,17,20-tetraazatetracyclo[14.3.1.13,7.19,13]docosa-1(19),9(21),10,12,16(20),17-hexaene-8,14,14-trione] | ++ (++ is 30-60%) |
| – | – | < 1000 | Cc1cccc(C)c1-c1cc2nc(n1)NS(=O)(=O)c1cccc(c1)C(=O)N1CC(CCC1c1ccccc1)O2 (single isomer, unassigned) [Compound 226, 18-(2,6-Dimethylphenyl)-6-phenyl-2-oxa-14λ^6-thia-7,15,17,20-tetraazatetracyclo[14.3.1.13,7.19,13]docosa-1(19),9(21),10,12,16(20),17-hexaene-8,14,14-trione] | ++ (++ is 30-60%) |
| – | – | < 1000 | Cc1cccc(C)c1-c1cc2nc(n1)NS(=O)(=O)c1cccc(c1)C(=O)N1CCCC(O2)C1CC(C)C (single isomer, unassigned) [Compound 230, 18-(2,6-Dimethylphenyl)-22-(2-methylpropyl)-2-oxa-14λ^6-thia-7,15,17,20-tetraazatetracyclo[14.3.1.13,7.19,13]docosa-1(20),9(21),10,12,16,18-hexaene-8,14,14-trione] | +++ (+++ is >60%) |
| – | – | < 1000 | Cc1cccc(C)c1-c1cc2nc(n1)NS(=O)(=O)c1cccc(c1)C(=O)N1CCCC(O2)C1CC(C)C (single isomer, unassigned) [Compound 231, 18-(2,6-Dimethylphenyl)-22-(2-methylpropyl)-2-oxa-14λ^6-thia-7,15,17,20-tetraazatetracyclo[14.3.1.13,7.19,13]docosa-1(20),9(21),10,12,16,18-hexaene-8,14,14-trione] | +++ (+++ is >60%) |
| – | < 1000 | – | Cc1cccc(C)c1-c1cc2nc(n1)NS(=O)(=O)c1cccc(c1)C(=O)N1CC(C)(C)CC(O2)C1CC(C)C (single isomer, unassigned) [Compound 232, 18-(2,6-Dimethylphenyl)-5,5-dimethyl-22-(2-methylpropyl)-2-oxa-14λ^6-thia-7,15,17,20-tetraazatetracyclo[14.3.1.13,7.19,13]docosa-1(20),9(21),10,12,16,18-hexaene-8,14,14-trione] | – |
| – | < 1000 | – | Cc1cccc(C)c1-c1cc2nc(n1)NS(=O)(=O)c1cccc(c1)C(=O)N1CC(C)(C)CC(O2)C1CC(C)C (single isomer, unassigned) [Compound 233, 18-(2,6-dimethylphenyl)-5,5-dimethyl-22-(2-methylpropyl)-2-oxa-14λ^6-thia-7,15,17,20-tetraazatetracyclo[14.3.1.13,7.19,13]docosa-1(20),9(21),10,12,16,18-hexaene-8,14,14-trione] | – |
| + (+ is <30%) | – | – | Cc1cccc(C)c1-c1cc2nc(n1)NS(=N)(=O)c1cccc(c1)C(=O)N1CCN(CCC(C)(C)C)C[C@H](C1)O2 (single isomer, unassigned) [Compound 244, 18-(3,3-dimethylbutyl)-12-(2,6-dimethylphenyl)-8-imino-15-oxa-8λ^6-thia-1,9,11,18,22-pentaazatetracyclo[14.4.1.13,7.110,14]tricosa-3,5,7(23),10,12,14(22)-hexaene-2,8-dione] | – |

— patent US20240018161A1, “MODULATORS OF CYSTIC FIBROSIS TRANSMEMBRANE CONDUCTANCE REGULATOR” (VERTEX PHARMACEUTICALS INCORPORATED, priority 2020, published 2024)
